Assay: resistivity in solution, crystalline versus amorphous form
Format: physicochemical
Details: compared with the amorphous form at an equivalent concentration in solution

For `CCNC(=O)[C@H]1O[C@@H](n2cnc3c(NCC(c4ccccc4)c4ccccc4)nc(C(=O)NCCNC(=O)NC4CCN(c5ccccn5)CC4)nc32)[C@H](O)[C@@H]1O` [crystalline form, 6-[(2,2-diphenylethyl)amino]-9-(N-ethyl-β-D-ribofuranosyluronamide)-N-(2-{N′-[1-(2-pyridyl)-4-piperidyl]ureido}ethyl)-9H-purine-2-carboxamide], the resistivity in solution was “higher resistivity than the amorphous form”.
